The supplement of paper PMC10307832

Key:
Assay in all cases: relative viability (nuclei count vs DMSO), 5 days (fraction); higher = more cells survive
[1] = tested on: EMC-BAC-2
How it was run: (§1)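 Values are medians from duplicate plates. Each reflects relative viability, defined as the nuclei count of treated wells over that of vehicle wells. Lung cancer cell lines in 1536-well plates were pin-tool dosed one day after seeding with one drug alone or with a fixed anchor-drug dose plus five library-drug doses (not always all listed) in √10 steps, then fixed, stained and imaged at 4× after 5 days.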

[2] = tested on: EPLC-272H
How it was run: as §1

[3] = tested on: HCC-366
How it was run: as §1

[4] = tested on: HCC-44
How it was run: as §1

[5] = tested on: HCC-78
How it was run: as §1

[6] = tested on: HCC-827
How it was run: as §1

[7] = tested on: LK-2
How it was run: as §1

[8] = tested on: LOU-NH91
How it was run: as §1

[9] = tested on: LU99A
How it was run: as §1

[10] = tested on: LXF-289
How it was run: as §1

[11] = tested on: NCI-H1563
How it was run: as §1

[12] = tested on: NCI-H1666
How it was run: as §1

[13] = tested on: NCI-H1975
How it was run: as §1

[14] = tested on: NCI-H2085
How it was run: as §1

[15] = tested on: NCI-H2126
How it was run: as §1

[16] = tested on: NCI-H23
How it was run: as §1

[17] = tested on: NCI-H2405
How it was run: as §1

[18] = tested on: NCI-H3122
How it was run: as §1

[19] = tested on: RERF-LC-KJ
How it was run: as §1

[20] = tested on: SK-LU-1
How it was run: as §1

[21] = tested on: SW 1573
How it was run: as §1

Structure (SMILES): C[C@@H]1CN(CC(=O)Nc2ccc3c(c2)Cc2cccc(-c4cc(=O)cc(N5CCOCC5)o4)c2S3)C[C@H](C)O1 + CS(=O)(=O)CCNCc1ccc(-c2ccc3ncnc(Nc4ccc(OCc5cccc(F)c5)c(Cl)c4)c3c2)o1 [Lapatinib] (partner 2 µM)
- relative viability ([1]; first compound 0.04 µM): 0.903
- relative viability ([1]; first compound 0.1265 µM): 0.934
- relative viability ([1]; first compound 0.4 µM): 0.775
- relative viability ([1]; first compound 4 µM): 0.827
- relative viability ([2]; first compound 0.04 µM): 0.837
- relative viability ([2]; first compound 0.1265 µM): 1
- relative viability ([2]; first compound 0.4 µM): 1.01
- relative viability ([2]; first compound 4 µM): 0.783
- relative viability ([3]; first compound 0.04 µM): 0.383
- relative viability ([3]; first compound 0.1265 µM): 0.974
- relative viability ([3]; first compound 0.4 µM): 1.17
- relative viability ([3]; first compound 4 µM): 0.824
- relative viability ([4]; first compound 0.04 µM): 0.94
- relative viability ([4]; first compound 0.1265 µM): 1.02
- relative viability ([4]; first compound 0.4 µM): 1.07
- relative viability ([4]; first compound 4 µM): 0.922
- relative viability ([5]; first compound 0.04 µM): 0.64
- relative viability ([5]; first compound 0.1265 µM): 0.705
- relative viability ([5]; first compound 0.4 µM): 0.702
- relative viability ([5]; first compound 4 µM): 0.703
- relative viability ([6]; first compound 0.04 µM): 0.172
- relative viability ([6]; first compound 0.1265 µM): 0.191
- relative viability ([6]; first compound 0.4 µM): 0.212
- relative viability ([6]; first compound 4 µM): 0.19
- relative viability ([7]; first compound 0.1265 µM): 0.938
- relative viability ([7]; first compound 0.4 µM): 0.936
- relative viability ([7]; first compound 4 µM): 0.948
- relative viability ([8]; first compound 0.04 µM): 0.689
- relative viability ([8]; first compound 0.1265 µM): 0.792
- relative viability ([8]; first compound 0.4 µM): 0.676
- relative viability ([8]; first compound 4 µM): 0.733
- relative viability ([9]; first compound 0.04 µM): 0.783
- relative viability ([9]; first compound 0.1265 µM): 1.15
- relative viability ([9]; first compound 0.4 µM): 1.08
- relative viability ([9]; first compound 4 µM): 1.04
- relative viability ([10]; first compound 0.04 µM): 0.879
- relative viability ([10]; first compound 0.1265 µM): 0.962
- relative viability ([10]; first compound 0.4 µM): 0.904
- relative viability ([10]; first compound 4 µM): 0.835
- relative viability ([11]; first compound 0.04 µM): 0.834
- relative viability ([11]; first compound 0.1265 µM): 0.883
- relative viability ([11]; first compound 0.4 µM): 0.859
- relative viability ([11]; first compound 4 µM): 0.702
- relative viability ([12]; first compound 0.04 µM): 0.745
- relative viability ([12]; first compound 0.1265 µM): 0.667
- relative viability ([12]; first compound 0.4 µM): 0.665
- relative viability ([12]; first compound 4 µM): 0.579
- relative viability ([13]; first compound 0.04 µM): 0.871
- relative viability ([13]; first compound 0.1265 µM): 0.803
- relative viability ([13]; first compound 0.4 µM): 0.912
- relative viability ([13]; first compound 4 µM): 0.754
- relative viability ([14]; first compound 0.04 µM): 0.402
- relative viability ([14]; first compound 0.1265 µM): 0.742
- relative viability ([14]; first compound 0.4 µM): 0.624
- relative viability ([14]; first compound 4 µM): 0.58
- relative viability ([15]; first compound 0.04 µM): 0.762
- relative viability ([15]; first compound 0.1265 µM): 0.757
- relative viability ([15]; first compound 0.4 µM): 0.764
- relative viability ([15]; first compound 4 µM): 0.763
- relative viability ([16]; first compound 0.04 µM): 0.886
- relative viability ([16]; first compound 0.1265 µM): 1.16
- relative viability ([16]; first compound 0.4 µM): 1.01
- relative viability ([16]; first compound 4 µM): 1.04
- relative viability ([17]; first compound 0.04 µM): 0.879
- relative viability ([17]; first compound 0.1265 µM): 1.11
- relative viability ([17]; first compound 0.4 µM): 1.04
- relative viability ([17]; first compound 4 µM): 1.07
- relative viability ([18]; first compound 0.04 µM): 1.05
- relative viability ([18]; first compound 0.1265 µM): 1.01
- relative viability ([18]; first compound 0.4 µM): 1.07
- relative viability ([18]; first compound 4 µM): 0.988
- relative viability ([19]; first compound 0.04 µM): 0.873
- relative viability ([19]; first compound 0.1265 µM): 0.877
- relative viability ([19]; first compound 0.4 µM): 0.808
- relative viability ([19]; first compound 4 µM): 0.799
- relative viability ([20]; first compound 0.04 µM): 0.869
- relative viability ([20]; first compound 0.1265 µM): 0.959
- relative viability ([20]; first compound 0.4 µM): 0.877
- relative viability ([20]; first compound 4 µM): 0.707
- relative viability ([21]; first compound 0.04 µM): 1.1
- relative viability ([21]; first compound 0.1265 µM): 1.14
- relative viability ([21]; first compound 0.4 µM): 1.18
- relative viability ([21]; first compound 4 µM): 1.08

Structure (SMILES): CC(C)Oc1cc(Nc2nc(N[C@@H](C)c3ccc(F)cn3)ncc2Cl)n[nH]1 [AZ23] + CS(=O)(=O)CCNCc1ccc(-c2ccc3ncnc(Nc4ccc(OCc5cccc(F)c5)c(Cl)c4)c3c2)o1 [Lapatinib] (partner 2 µM)
- relative viability ([1]; first compound 0.01 µM): 0.968
- relative viability ([1]; first compound 0.03162 µM): 0.981
- relative viability ([1]; first compound 0.3162 µM): 0.922
- relative viability ([2]; first compound 0.01 µM): 0.885
- relative viability ([2]; first compound 0.03162 µM): 1.16
- relative viability ([3]; first compound 0.01 µM): 0.905
- relative viability ([3]; first compound 0.03162 µM): 1.52
- relative viability ([3]; first compound 0.3162 µM): 1.11
- relative viability ([4]; first compound 0.01 µM): 1.01
- relative viability ([4]; first compound 0.03162 µM): 1.21
- relative viability ([4]; first compound 0.3162 µM): 1.09
- relative viability ([5]; first compound 0.01 µM): 0.469
- relative viability ([5]; first compound 0.03162 µM): 1
- relative viability ([5]; first compound 0.3162 µM): 0.456
- relative viability ([6]; first compound 0.01 µM): 0.205
- relative viability ([6]; first compound 0.03162 µM): 0.172
- relative viability ([6]; first compound 0.3162 µM): 0.21
- relative viability ([7]; first compound 0.01 µM): 0.958
- relative viability ([7]; first compound 0.03162 µM): 1.3
- relative viability ([7]; first compound 0.3162 µM): 0.685
- relative viability ([8]; first compound 0.01 µM): 0.674
- relative viability ([8]; first compound 0.03162 µM): 0.787
- relative viability ([8]; first compound 0.3162 µM): 0.716
- relative viability ([9]; first compound 0.01 µM): 1.2
- relative viability ([9]; first compound 0.03162 µM): 1.08
- relative viability ([9]; first compound 0.3162 µM): 1.09
- relative viability ([10]; first compound 0.01 µM): 1.01
- relative viability ([10]; first compound 0.03162 µM): 0.932
- relative viability ([10]; first compound 0.3162 µM): 0.884
- relative viability ([11]; first compound 0.01 µM): 0.915
- relative viability ([11]; first compound 0.03162 µM): 1.06
- relative viability ([11]; first compound 0.3162 µM): 0.921
- relative viability ([12]; first compound 0.01 µM): 0.747
- relative viability ([12]; first compound 0.03162 µM): 0.565
- relative viability ([12]; first compound 0.3162 µM): 0.591
- relative viability ([13]; first compound 0.01 µM): 1.27
- relative viability ([13]; first compound 0.03162 µM): 0.961
- relative viability ([13]; first compound 0.3162 µM): 0.862
- relative viability ([14]; first compound 0.01 µM): 0.771
- relative viability ([14]; first compound 0.03162 µM): 0.735
- relative viability ([14]; first compound 0.3162 µM): 0.772
- relative viability ([15]; first compound 0.01 µM): 0.838
- relative viability ([15]; first compound 0.03162 µM): 0.821
- relative viability ([15]; first compound 0.3162 µM): 0.842
- relative viability ([16]; first compound 0.03162 µM): 1.23
- relative viability ([16]; first compound 0.3162 µM): 1.07
- relative viability ([17]; first compound 0.01 µM): 1
- relative viability ([17]; first compound 0.03162 µM): 1.16
- relative viability ([17]; first compound 0.3162 µM): 0.943
- relative viability ([18]; first compound 0.01 µM): 1.08
- relative viability ([18]; first compound 0.03162 µM): 1.01
- relative viability ([18]; first compound 0.3162 µM): 1.04
- relative viability ([19]; first compound 0.01 µM): 0.965
- relative viability ([19]; first compound 0.03162 µM): 1.15
- relative viability ([19]; first compound 0.3162 µM): 0.881
- relative viability ([20]; first compound 0.01 µM): 0.929
- relative viability ([20]; first compound 0.03162 µM): 1.06
- relative viability ([20]; first compound 0.3162 µM): 1.06
- relative viability ([21]; first compound 0.01 µM): 1.21
- relative viability ([21]; first compound 0.03162 µM): 1.11
- relative viability ([21]; first compound 0.3162 µM): 0.939
